Assay results taken from article PMC6831611, “Proof-of-Concept Study of Drug Brain Permeability Between in Vivo Human Brain and an in Vitro iPSCs-Human Blood-Brain Barrier Model” (Scientific Reports, 2019).
“Also recorded” adds a separate entry of the source. Like-named read-outs stand apart in the source and are kept apart here.

How the values were obtained:
iPSC-hBBB monolayer = assay: Apparent permeability (Papp A to B) across the in vitro iPSC-hBBB model; settings: iPSC-hBBB model, PappAB
Experimental: (§1) On day before the co-culture establishment, rat glial cells (2 × 10^4 cells) isolated as described previously[6] were plated on 12 wells plate (Costar) in glial specific medium. After 24 hours, hiPSC-BECs (6 × 10^4cells) were plated on the upper side of a collagen-coated polyester Transwell membrane (Costar, pore size 0.4 µm; diameter 12 mm; insert growth area 1 cm^2) in 0.5 mL of endothelial medium.
(§2) Experiments were performed in triplicate for each compound.
(§3) For LC-MS/MS a sample aliquot (transfer buffer) was diluted by half with acetonitrile and then, 10 μL of this solution was injected into the analytical equipment made up a Liquid Chromatography system coupled to a triple quadrupole mass spectrometer Thermofisher TS Quantum Discovery or Waters Quattro Premier XE equipped with a electrospray ionization source. System control and data processing were carried out using Xcalibur or Masslynx software. The chromatographic separation was performed on a Waters ACQUITY UPLC BEH C18 column (2.1 mm × 50 mm, 1.7 μm) at 60 °C. A gradient of two solvent mixtures was delivered at 0.3 mL/min or 0.5 mL/min according to the analytical system. Solvent A comprised 0.1% formic acid in ammonium acetate (5 mM) and solvent B, 0.1% formic acid in acetonitrile. Molecules were ionized in positive mode. Multiple reaction monitoring mode was used for compounds quantification. For all tested compounds, a linear gradient of mobile phase A and B was optimized. Linearity of the response was verified in the range 0.05 to 5 µM through 3 experiments to be able to measure low passage. Quantification was carried out using standard calibration curve and quality control samples prepared with blank matrix (transfer buffer/acetonitrile; 1/1; v/v) spiked with compounds.

human brain (BBB) = settings: PET, cited from earlier work; for K1, rate constant for transfer from arterial plasma into brain: human brain; for cerebral uptake / brain distribution in human brain (in words): in vivo, ref S1 Table 1
[1] = tested on: ABC transporters (P-gp) in the iPSC-hBBB model
Experimental: (§4) A known P-gp substrate was used to assess the asymmetry index of the iPSC- hBBB model.
(§5) The integrity of iPSC-derived human BBB model was determined by assessment of radiolabelled sucrose permeability as a paracellular marker. The transwells with hiPSC-BECs monolayers were transferred to new 12 well plates. […] After 1 hour of incubation at 37 °C with gentle rotation, 100 µL of transfer buffer from both A and B compartments were collected and counted by scintillation. The Papp value was calculated as followed: Papp=dQ/dTXAXC0 where dQ/dT is the amount of compound transported per time point; A is the membrane surface area of the insert; and Co is the donor concentration at the time point. Data were presented as the average ± SD from three monolayers. […] The propranolol permeability was also tested using the same protocol with an apical tested dose about 1 µCi/mL (48 nM) of [^3H]propranolol in transfer buffer. […] After checking the cell monolayer integrity, the monolayers were transferred to new plates. The buffer (150 mM NaCl, 5.2 mM KCl, 2.2 mM CaCl2, 0.2 mM MgCl2, 6 mM NaHCO3, 2.8 mM glucose and 5 mM Hepes) was added: 1.5 mL to the basal chamber (B) and 0.5 mL to the apical chamber (A). Experiments were performed in triplicate for each compound. […] After 60 min, aliquots were removed from the acceptor and basal chambers for drug-concentration determination by LC-MS/MS.

ABC transporters (P-gp) = assay: in vitro; settings: human, PappBA/PappAB efflux ratio (ER)
Experimental: as §4, §5

ABC transporters = assay: in vitro; settings: rat
[2] = tested on: ABC transporters in the in vitro primary rat cell based BBB model
[3] = tested on: in vitro primary cell-based rat BBB model; assay: Apparent permeability in the in vitro primary cell-based rat BBB model; settings: in vitro cell based rat BBB model vs iPSC-hBBB model
From the text: We previously described an in vitro primary cell-based rat BBB model with relevant features of the in vivo rat BBB[6]. We therefore analyzed correlatively the permeability of a set of compounds obtained using the in vitro iPSC-hBBB model and the in vitro cell based rat BBB model.

[4] = Apparent permeability (Papp A to B) across the in vitro iPSC-hBBB model; settings: human
Experimental: as §1, §2, §3

Structure (SMILES)	in vitro permeability across the iPSC-hBBB model (in words) (iPSC-hBBB monolayer)	ABC transporter substrate / interaction (in words) [1]	K1, rate constant for transfer from arterial plasma into brain (human brain (BBB)) [mL.cm-3.min-1]	permeability in the rat BBB model compared with the iPSC-hBBB model (in words) [3]	further results
COC[C@H]1CN(c2ccc(OCC[C@@H](O)C(F)(F)F)cc2)C(=O)O1 [befloxatone]	high permeability	–	–	–	K1, rate constant for transfer from arterial plasma into brain (human brain (BBB); ref unpublished data): 0.20 mL.cm-3.min-1; cerebral uptake / brain distribution in human brain (in words) (human brain (BBB)): high cerebral uptake
CC[C@]1(O)C[C@@H]2CN(CCc3c([nH]c4ccccc34)[C@@](C(=O)OC)(c3cc4c(cc3OC)N(C)[C@H]3[C@@](O)(C(=O)OC)[C@H](OC(C)=O)[C@]5(CC)C=CCN6CC[C@]43[C@@H]65)C2)C1 [vinblastine]	–	likely to be also ABC transporter substrates	–	–	efflux ratio at 60 min (ABC transporters (P-gp)): 1.55 ± 0.4; efflux ratio (ABC transporters): ≥ 1.25
C#Cc1cccc(Nc2ncnc3cc(OCCOC)c(OCCOC)cc23)c1 [erlotinib]	high permeability	not in the in vitro iPSC-hBBB model	0.02	–	ABC transporter substrate / interaction (in words) [2]: apparently an ABC transporter substrate; cerebral uptake / brain distribution in human brain (in words) (human brain (BBB)): low cerebral uptake
COc1ccc2c(c1)[C@]13CCCC[C@@H]1[C@H](C2)N(C)CC3 [dextromethorphan]	–	–	–	higher	–
CCN1CCC[C@H]1CNC(=O)c1c(O)c(Cl)cc(Cl)c1OC [raclopride]	–	–	0.09	–	–
CN(C)C(=O)C(CCN1CCC(O)(c2ccc(Cl)cc2)CC1)(c1ccccc1)c1ccccc1 [loperamide]	low apparent permeability	likely to be also ABC transporter substrates; also recorded: apparently interacted with ABC transporters	0.002	higher	–
Cn1c(=O)c2c(ncn2C)n(C)c1=O [caffeine]	–	–	–	higher	–
CC(C)NCC(O)COc1cccc2ccccc12 (stereo not shown) [propranolol]	–	–	–	–	Papp A→B at 1 h [4]: 21.7 ± 3.1 ×10⁻⁶ cm/s
